# Data: patent US20080193530A1 (priority 2007, published 2008)
# “Also recorded” adds a separate entry of the source.
# Test system: glycosylated hemoglobin level (HbA1C)
# Experiment: Clinical study of ranolazine (IV dose, then oral sustained release) vs placebo in patients having coronary disease: HbA1C
# Type: in vivo, human
# From the text: Baseline is in-hospital visit prior to hospitalization.
# [1] = Diabetes at enrollment, ranolazine group (n = 1098), Month 16
# [2] = No Diabetes at enrollment, ranolazine group (n = 2170), Final Visit
# [3] = No Diabetes at enrollment, ranolazine group (n = 2170), Month 4
# [4] = No Diabetes at enrollment, ranolazine group (n = 2170), Month 8
# [5] = No Diabetes at enrollment, ranolazine group (n = 2170), Month 16
smiles,measurement,setting,value
"COc1ccccc1OCC(O)CN1CCN(CC(=O)Nc2c(C)cccc2C)CC1 (racemic) [Ranolazine, (±)-N-(2,6-dimethylphenyl)-4-[2-hydroxy-3-(2-methoxyphenoxy)-propyl]-1-piperazineacetamide]",Proportion of patients with HbA1c ≧7% by diabetes at enrollment,"Diabetes at enrollment, ranolazine group (n = 1098), Baseline",57%
same,Proportion of patients with HbA1c ≧7% by diabetes at enrollment,"Diabetes at enrollment, ranolazine group (n = 1098), Final Visit",42%
same,Proportion of patients with HbA1c ≧7% by diabetes at enrollment,"Diabetes at enrollment, ranolazine group (n = 1098), Month 4",41%
same,Proportion of patients with HbA1c ≧7% by diabetes at enrollment,"Diabetes at enrollment, ranolazine group (n = 1098), Month 8",44%
same,Number of patients with HbA1c ≧7% by diabetes at enrollment,[1],63
same,Proportion of patients with HbA1c ≧7% by diabetes at enrollment,[1],48%
same,Proportion of patients with HbA1c ≧7% by diabetes at enrollment,"No Diabetes at enrollment, ranolazine group (n = 2170), Baseline",6%
same,Number of patients with HbA1c ≧7% by diabetes at enrollment,[2],92
same,Proportion of patients with HbA1c ≧7% by diabetes at enrollment,[2],6%
same,Number of patients with HbA1c ≧7% by diabetes at enrollment,[3],78
same,Proportion of patients with HbA1c ≧7% by diabetes at enrollment,[3],5%
same,Number of patients with HbA1c ≧7% by diabetes at enrollment,[4],72
same,Proportion of patients with HbA1c ≧7% by diabetes at enrollment,[4],6%
same,Number of patients with HbA1c ≧7% by diabetes at enrollment,[5],21
same,Proportion of patients with HbA1c ≧7% by diabetes at enrollment,[5],7%
same,Effect on serum HbA1c levels (FIGS. 1 and 2),all patients treated,HbA1c lowering effect on all patients treated; also recorded: significantly lowers serum HbA1C levels
same,Number of patients with HbA1C ≧7%,"all patients, ranolazine group (n = 3268), Month 16",84
same,Effect on HbA1c levels (FIG. 2),diabetic patients treated with ranolazine,reduction in the amount of HbA1C levels
same,Effect on HbA1c levels (FIG. 2),non-diabetic patients treated with ranolazine,reduction in the amount of HbA1C levels
